Assay results published in PMC6964273 (ACS Omega, 2019).
Like-named read-outs stand apart in the source and are kept apart here.

Assays:
[1] = system: C3PV cell line; assay: MTT cell viability assay on normal primary fibroblasts C3PV; format: cell-based, human; settings: for IC50: 24 h, read-out: IC50 ± SD C3PV
[2] = system: cervical cancer cell line (HeLa); assay: MTT cell viability assay on HeLa; format: cell-based, human
[3] = system: SK-MEL3 metastatic melanoma cancer cell line; assay: MTT cell viability assay on SK-MEL3; format: cell-based, human; settings: read-out: IC50 ± SD SK-MEL3
[4] = system: SK-MEL24 metastatic melanoma cancer cell line; assay: MTT cell viability assay on SK-MEL24; format: cell-based, human; settings: read-out: IC50 ± SD SK-MEL24
[5] = system: RPMI-7951 metastatic melanoma cancer cell line; assay: MTT cell viability assay on RPMI-7951; format: cell-based, human; settings: read-out: IC50 ± SD RPMI-7951
[6] = system: RPMI-7951 cancer cell line; assay: DFO assay; format: cell-based, human
[7] = system: SK-MEL3 cancer cell line; assay: DFO assay; format: cell-based, human
[8] = system: SK-MEL24 cancer cell line; assay: DFO assay; format: cell-based, human
[9] = Stability in the cell culture medium by TLC and HPLC; format: physicochemical; settings: 48 h, room temperature
[10] = Homo sapiens, read-out: IC50 ± SD HeLa
[11] = Homo sapiens, RPMI-7951, 24 h, read-out: IC50 ± SD RPMI-7951 without DFO
[12] = Homo sapiens, RPMI-7951, read-out: IC50 ± SD RPMI-7951 with DFO
[13] = Homo sapiens, SK-MEL3, 24 h, read-out: IC50 ± SD SK-MEL3 without DFO
[14] = Homo sapiens, SK-MEL3, read-out: IC50 ± SD SK-MEL3 with DFO
[15] = Homo sapiens, SK-MEL-24, 24 h, read-out: IC50 ± SD SK-MEL24 without DFO
[16] = Homo sapiens, SK-MEL-24, read-out: IC50 ± SD SK-MEL24 with DFO
[17] = read-out: IC50 ± SD RPMI-7951 without DFO, without DFO, treatment time 24 hours
[18] = read-out: IC50 ± SD SK-MEL3 without DFO, without DFO, treatment time 24 hours
[19] = read-out: IC50 ± SD SK-MEL24 without DFO, without DFO, treatment time 24 hours

Row | Structure (SMILES) | IC50 ([1]; Homo sapiens, C3PV) | IC50 [2, 10] | IC50 ([3]; Homo sapiens, SK-MEL3, 24 h) | IC50 ([4]; Homo sapiens, SK-MEL-24, 24 h) | IC50 ([5]; Homo sapiens, RPMI-7951, 24 h) | also measured
1 | C=CCc1ccc(O)c(OC)c1 [Compound 6, eugenol] | 6.88 ± 0.085 µM | 4.68 ± 1.64 µM | 1.16 ± 0.32 µM | 2.61 ± 0.34 µM | 0.84 ± 0.34 µM | 
2 | C=C(C)[C@@H]1CC=C(CO)CC1 [Compound 7, perillyl alcohol] | 3.8 ± 0.28 µM | 1.63 ± 0.4 µM | 1.37 ± 0.59 µM | 2.69 ± 1.3 µM | 1.71 ± 0.52 µM | 
3 | C[C@H]1[C@@H](O)O[C@@H]2O[C@@]3(C)CC[C@H]4[C@H](C)CC[C@@H]1[C@@]24OO3 [Compound 2, dihydroartemisinin] | 0.68 ± 0.19 µM | 1.32 ± 0.26 µM | 10.4 ± 0.61 µM | 3.23 ± 1.6 µM | 0.91 ± 0.45 µM | 
4 | Cc1c(C)c2c(c(C)c1O)CC[C@@](C)(CCC[C@H](C)CCC[C@H](C)CCCC(C)C)O2 [Compound 9, α-tocopherol] | 74.1 ± 5.09 µM | 3.03 ± 1.5 µM | 1.22 ± 0.64 µM | 2.35 ± 1.05 µM | 4.11 ± 2.1 µM | 
5 | C=CCc1ccc(OC(=O)CCC(=O)OC2OC3OC4(C)CCC5C(C)CCC(C2C)C35OO4)c(OC)c1 (stereo not drawn) [Compound 11ii] |  |  |  |  |  | IC50 ([1]; normal human primary fibroblast cell line, MTT): 6.79 ± 0.15 µM; IC50 ([2]; read-out: IC50 ± SD HeLa, MTT): 1.44 ± 1.09 µM; IC50 ([3]; SK-MEL3, MTT, 24 h): 4.65 ± 1.8 µM; IC50 ([4]; SK-MEL24, MTT, 24 h): 5.44 ± 2.4 µM; IC50 ([5]; RPMI-7951, MTT, 24 h): 1.21 ± 0.63 µM
6 | COc1cc(/C=C/C(=O)CC(=O)/C=C/c2ccc(O)c(OC)c2)ccc1O [Compound 5, curcumin] | > 300 µM | 2.12 ± 0.94 µM | 1.69 ± 1.24 µM | 3 ± 1.35 µM | 3.95 ± 0.09 µM | 
7 | CC(=O)O[C@H]1C(=O)[C@@]2(C)[C@H]([C@H](OC(=O)c3ccccc3)[C@]3(O)C[C@H](OC(=O)[C@H](O)[C@@H](NC(=O)c4ccccc4)c4ccccc4)C(C)=C1C3(C)C)[C@]1(OC(C)=O)CO[C@@H]1C[C@@H]2O [paclitaxel] | 78.9 ± 0.79 µM | 0.006 ± 0.0014 µM | 4.73 ± 0.83 µM | 1.04 ± 0.31 µM | 0.013 µM | 
8 | C[C@@H]1CC[C@H]2[C@@H](C)C(=O)O[C@@H]3O[C@@]4(C)CC[C@@H]1[C@]32OO4 [Compound 1, Artemisinin] | > 300 µM | 1.37 ± 0.59 µM | 3.43 ± 0.86 µM | 8.66 ± 4.56 µM | 3.62 ± 0.99 µM | cytotoxicity on normal cell line C3PV (in words) ([1]; C3PV, MTT): not cytotoxic; IC50 [6, 11]: 3.62 ± 1.6 µM; IC50 [6, 12]: 29 ± 2.8 µM; IC50 [7, 13]: 3.43 ± 0.8 µM; IC50 [7, 14]: > 300 µM; IC50 [8, 15]: 8.66 ± 0.9 µM; IC50 [8, 16]: 27.8 ± 3.4 µM
9 | C[C@H]1[C@H](OC(=O)CCC(=O)Oc2ccc(CCO)cc2)O[C@@H]2O[C@@]3(C)CC[C@H]4[C@H](C)CC[C@@H]1[C@@]24OO3 [Compound 11iv] |  |  |  |  |  | cytotoxicity on normal cell line C3PV (in words) ([1]; C3PV, MTT): not cytotoxic; activity against HeLa (in words) ([2]; MTT): inactive; IC50 ([2]; read-out: IC50 ± SD HeLa, MTT): > 300 µM; IC50 ([3]; SK-MEL3, MTT, 24 h): 2.33 ± 1.18 µM; IC50 ([4]; SK-MEL24, MTT, 24 h): 2.32 ± 1.19 µM; IC50 ([5]; RPMI-7951, MTT, 24 h): 8.34 ± 3.06 µM; IC50 [6, 17]: 8.34 ± 2.7 µM; IC50 [7, 18]: 2.33 ± 0.09 µM; IC50 [8, 19]: 2.32 ± 0.9 µM; stability in the cell culture medium (ester bond; release of tyrosol) [9]: No traces of tyrosol were observed
10 | OCCc1ccc(O)cc1 [Compound 8, tyrosol] | 22.7 ± 1.83 µM | 1.41 ± 0.79 µM | 2.53 ± 1.41 µM | 1.69 ± 0.15 µM | 10.8 ± 1.4 µM | 
11 | C=C(C)C1CC=C(COC(=O)CCC(=O)OC2OC3OC4(C)CCC5C(C)CCC(C2C)C35OO4)CC1 (stereo not drawn) [Compound 11iii] |  |  |  |  |  | cytotoxicity on normal cell line C3PV (in words) ([1]; C3PV, MTT): not cytotoxic; IC50 ([2]; read-out: IC50 ± SD HeLa, MTT): 1.76 ± 0.47 µM; IC50 ([3]; SK-MEL3, MTT, 24 h): 5.24 ± 2.29 µM; IC50 ([4]; SK-MEL24, MTT, 24 h): 0.06 ± 0.1 µM; IC50 ([5]; RPMI-7951, MTT, 24 h): 2.35 ± 1.52 µM; IC50 [6, 17]: 2.35 ± 0.9 µM; IC50 [7, 18]: 5.24 ± 0.2 µM; IC50 [8, 19]: 0.06 ± 0.01 µM
12 | C[C@H]1[C@H](OC(=O)CCC(=O)O)O[C@@H]2O[C@@]3(C)CC[C@H]4[C@H](C)CC[C@@H]1[C@@]24OO3 [Compound 3, artesunate] | 1.68 ± 0.44 µM | 1.76 ± 0.38 µM | > 300 µM | 0.82 ± 0.37 µM | 1.08 ± 0.56 µM | IC50 [6, 11]: 1.08 ± 0.6 µM; IC50 [6, 12]: 1.09 ± 0.9 µM; IC50 [7, 13]: > 300 µM; IC50 [7, 14]: > 300 µM; IC50 [8, 15]: 0.82 ± 0.05 µM; IC50 [8, 16]: 0.9 ± 0.02 µM
